Assay results as given in patent US8404746B2, “Anti-diabetes composition containing chicoric acid and/or one of the metabolites thereof” (Centre National de la Recherche Scientifique (CNRS), priority 2006, dated 2013).

System: L6 rat myocyte cell line
Experiment: [3H]-deoxyglucose uptake in the L6 rat myocyte cell line with or without insulin (Example 5, FIG. 5)
Format: cell-based
Conditions: insulin at 100 nM alone, p<0.001
Excerpt: The L6 line (a line from the skeletal muscle of Rattus norvegicus provided by ATCC-LCC Promochem) was used. Glucose uptake in the presence of insulin with or without SAT2 was quantified using [^3H]-deoxyglucose. The L6 cell line is cultivated in DMEM (4.5 g/l glucose) supplemented with 10% fetal calf serum (FCS). For the glucose uptake experiments, the cells are inoculated in 12-well plates at a density of 10^4 cells/well. After three days of culture, the cells are differentiated in DMEM with 2% FCS for one week. The day of the experiment, the cells are deprived for 4 hours in DMEM without FCS and containing 0.1% BSA, and then they are incubated for 1 hour in a Krebs-Ringer buffer containing 1 g/l glucose and containing […] insulin with or without SAT2 at a concentration of 50 μg/ml or 100 μg/ml. The cells are then washed in Krebs-Ringer and then incubated in the presence of 0.5 μCi [^3H]-deoxyglucose in 1 ml Krebs-Ringer per well. Glucose uptake by the L6 cells is stopped by three washings in cold PBS and the cells are then lysed in 1 ml of a 0.1 N NaOH solution. Concentration in total protein is estimated by the Bradford method and radioactivity is measured using a β counter. The final results are expressed in cpm/mg/min. […] The effects on glucose uptake are measured in the presence of [^3H]-deoxyglucose for 5 minutes. […]

In the case of Insulin, the “increase in glucose capture” value is reported as 30.4%.
